{"source": "patent US20200317642A1", "about": "“AMINE-SUBSTITUTED HETEROCYCLIC COMPOUNDS AS EHMT2 INHIBITORS AND DERIVATIVES THEREOF” (Epizyme, Inc., priority 2017, published 2020)", "key": {"human EHMT2 913-1193": {"molecular_target": "T1, human EHMT2 913-1193 (Homo sapiens, UniProt Q96KQ7)", "T1 construct": "recombinant purified human EHMT2 913-1193, Viva; purchased Viva", "T1 sequence (Q96KQ7 913-1193)": "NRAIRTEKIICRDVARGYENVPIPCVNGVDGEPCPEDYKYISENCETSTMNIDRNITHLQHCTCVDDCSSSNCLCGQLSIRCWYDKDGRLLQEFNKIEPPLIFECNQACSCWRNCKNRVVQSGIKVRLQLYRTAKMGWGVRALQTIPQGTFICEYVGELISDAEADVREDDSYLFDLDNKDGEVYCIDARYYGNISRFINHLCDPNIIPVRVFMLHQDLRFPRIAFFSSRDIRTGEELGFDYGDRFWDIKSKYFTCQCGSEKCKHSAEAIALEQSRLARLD", "assay": "EHMT2 enzyme assay on histone peptide substrate", "assay_type": "biochemical", "settings": "Table 3A; histone H3 1-15 peptide, balanced conditions; read-out: EHMT2 (IC50 μM)", "from_the_text": "Recombinant purified human EHMT2 913-1193 ([…]) synthesized by Viva was used for all experiments. Biotinylated histone peptides were synthesized by Biopeptide and HPLC-purified to >95% purity. Streptavidin Flashplates and seals were purchased from PerkinElmer and 384 Well V-bottom Polypropylene Plates were from Greiner. ^3H-labeled S-adenosylmethionine (^3H-SAM) was obtained from American Radiolabeled Chemicals with a specific activity of 80 Ci/mmol. Unlabeled SAM and S-adenosylhomocysteine (SAH) were obtained from American Radiolabeled Chemicals and Sigma-Aldrich respectively. Flashplates were washed in a Biotek ELx-405 with 0.1% Tween. 384-well Flashplates and 96-well filter binding plates were read on a TopCount microplate reader (PerkinElmer). Compound serial dilutions were performed on a Freedom EVO (Tecan) and spotted into assay plates using a Thermo Scientific Matrix PlateMate (Thermo Scientific). Reagent cocktails were added by Multidrop Combi (Thermo Scientific).\n10-point curves of test compounds were made on a Freedom EVO (Tecan) using serial 3-fold dilutions in DMSO, beginning at 2.5 mM (final top concentration of compound was […] and the DMSO was 2%). A 1 μL aliquot of the inhibitor dilution series was spotted in a polypropylene 384-well V-bottom plate (Greiner) using a Thermo Scientific Matrix PlateMate (Thermo Scientific). The 100% inhibition control consisted of 1 mM final concentration of the product inhibitor S-adenosylhomocysteine (SAH, Sigma-Aldrich). Compounds were incubated for 30 minutes with 40 μL per well of 0.031 nM EHMT2 (recombinant purified human EHMT2 913-1193, Viva) in 1× assay buffer (20 mM Bicine [pH 7.5], 0.002% Tween 20, 0.005% Bovine Skin Gelatin and 1 mM TCEP). 10 μL per well of substrate mix comprising assay buffer, ^3H-SAM (^3H-labeled S-adenosylmethionine, American Radiolabeled Chemicals, specific activity of 80 Ci/mmol), unlabeled SAM (American Radiolabeled Chemicals), and peptide representing histone H3 residues 1-15 containing C-terminal biotin (appended to a C-terminal amide-capped lysine, synthesized by Biopeptide and HPLC-purified to greater than 95% purity) were added to initiate the reaction (both substrates were present in the final reaction mixture at their respective Km values, an assay format referred to as “balanced conditions”). Reactions were incubated for 60 minutes at room temperature and quenched with 10 μL per well of 400 μM unlabeled SAM, then transferred to a 384-well streptavidin Flashplate (PerkinElmer) and washed in a Biotek ELx-405 well washer with 0.1% Tween after 60 minutes. 384-well Flashplates were read on a TopCount microplate reader (PerkinElmer)."}, "[1]": {"tested_on": "H3K9me2 in MDA-MB-231 cells", "assay": "MDA-MB-231 H3K9me2 in-cell western assay (EHMT2 ICW)", "assay_type": "cell-based", "settings": "Homo sapiens, Table 3A, read-out: ICW (IC50 μM)", "from_the_text": "MDA-MB-231 cell line was purchased from ATCC (Manassas, Va., USA). RPMI/Glutamax medium, Penicillin-Streptomycin, Heat Inactivated Fetal Bovine Serum, and D-PBS were purchased from Life Technologies (Grand Island, N.Y., USA). Odyssey blocking buffer, 800 CW goat anti-mouse IgG (H+L) antibody, and Licor Odyssey Infrared Scanner were purchased from Licor Biosciences, Lincoln, Nebr., USA. H3K9me2 mouse monoclonal antibody (Cat #1220) was purchased from Abcam (Cambridge, Mass., USA). 16% Paraformaldehyde was purchased from Electron Microscopy Sciences, Hatfield, Pa., USA). MDA-MB-231 cells were maintained in complete growth medium (RPMI supplemented with 10% v/v heat inactivated fetal bovine serum) and cultured at 37° C. under 5% C02. UNC0638 was purchased from Sigma-Aldrich (St. Louis, Mo., USA).\nGeneral Procedure for MDA-MB-231 HEK9me2 in-Cell Western Assay.\nCompound (100 nL) was added directly to 384-well cell plate. MDA-MB-231 cells (ATCC) were seeded in assay medium (RPMI/Glutamax supplemented with 10% v/v heat inactivated fetal bovine serum and 1% Penicillin/Streptomycin, Life Technologies) at a concentration of 3,000 cells per well to a Poly-D-Lysine coated 384-well cell culture plate with 50 μL per well. Plates were incubated at 37° C., 5% CO2 for 48 hours (BD Biosciences 356697). […] After the incubation, 50 μL per well of 8% paraformaldehyde (Electron Microscopy Sciences) in PBS was added to the plates and incubated at room temperature for 20 minutes. Plates were transferred to a Biotek 406 plate washer and washed 2 times with 100 μL per well of wash buffer (1×PBS containing 0.3% Triton X-100 (v/v)). Next, 60 μL per well of Odyssey blocking buffer (Licor Biosciences) was added to each plate and incubated for 1 hour at room temperature. Blocking buffer was removed and 20 μL of monoclonal primary antibody α-H3K9me2 (Abcam) diluted 1:800 in Odyssey buffer with 0.1% Tween 20 (v/v) were added and plates were incubated overnight (16 hours) at 4° C. Plates were washed 5 times with 100 μL per well of wash buffer. Next 20 μL per well of secondary antibody was added (1:500 800 CW donkey anti-mouse IgG (H+L) antibody (Licor Biosciences), 1:1000 DRAQ5 (Cell Signaling Technology) in Odyssey buffer with 0.1% Tween 20 (v/v)) and incubated for 1 hour at room temperature. The plates were washed 5 times with 100 μL per well wash buffer then 2 times with 100 μL per well of water. Plates were allowed to dry at room temperature then imaged on a Licor Odyssey Infrared Scanner (Licor Biosciences) which measured integrated intensity at 700 nm and 800 nm wavelengths. Both 700 and 800 channels were scanned.\nFirst, the ratio for each well was determined by:\nEach plate included fourteen control wells of DMSO only treatment (Minimum Inhibition) as well as fourteen control wells (background wells) for maximum inhibition treated with control compound UNC0638 (Background wells).\nThe average of the ratio values for each well was calculated and used to determine the percent inhibition for each test well in the plate. Control compound was serially diluted three-fold in DMSO for a total of 10 test concentrations beginning at 1 μM. Percent inhibition was calculated as: […]\nIC50 curves were generated using triplicate wells per concentration of compound. The IC50 is the concentration of compound at which measured methylation is inhibited by 50% as interpolated from the dose response curves. IC50 values were calculated using a non-linear regression (variable slope-four parameter fit model) with by the following formula:\nwhere Top is fixed at 100% and Bottom is fixed to 0%, [I]=concentration of inhibitor, IC50=half maximal inhibitory concentration and n=Hill Slope."}}}
{"compound": "CCN1CCCc2nn(-c3cc4c(cc3Cl)C3(CCC3)C(NC)=N4)cc2C1", "note": "[Compound A69]", "values": [{"measurement": "IC50", "setting": "human EHMT2 913-1193", "value": "< 0.01", "unit": "µM"}, {"measurement": "IC50", "setting": "[1]", "value": "0.01 to 0.1", "unit": "µM"}]}
{"compound": "CNc1cc(C)nc(Nc2ccc(OC)c(-n3ncc4c3CCCNC4=O)c2F)n1", "note": "[Compound A63]", "values": [{"measurement": "IC50", "setting": "human EHMT2 913-1193", "value": "> 1", "unit": "µM"}]}
{"compound": "CNc1cc(C)nc(Nc2ccc(OC)c(-n3ncc4c3CCCNC4)c2F)n1", "note": "[Compound A62]", "values": [{"measurement": "IC50", "setting": "human EHMT2 913-1193", "value": "< 0.01", "unit": "µM"}, {"measurement": "IC50", "setting": "[1]", "value": "0.01 to 0.1", "unit": "µM"}]}
{"compound": "CNC1=Nc2cc(-n3cc([C@H]4CCCN4C)nn3)c(OC)cc2C12CCC2", "note": "[Compound A59R]", "values": [{"measurement": "IC50", "setting": "human EHMT2 913-1193", "value": "< 0.01", "unit": "µM"}, {"measurement": "IC50", "setting": "[1]", "value": "0.1 to 1", "unit": "µM"}]}
{"compound": "CNC1=Nc2cc(-c3cc4ccncc4[nH]3)c(Cl)cc2C12CCC2", "note": "[Compound A44]", "values": [{"measurement": "IC50", "setting": "human EHMT2 913-1193", "value": "0.01 to 0.1", "unit": "µM"}, {"measurement": "IC50", "setting": "[1]", "value": "0.1 to 1", "unit": "µM"}]}
{"compound": "CNc1cc(C)nc(Nc2ccc(OC)c(-n3cc4c(n3)CCCN(C)C4)c2F)n1", "note": "[Compound A66]", "values": [{"measurement": "IC50", "setting": "human EHMT2 913-1193", "value": "< 0.01", "unit": "µM"}]}
{"compound": "CNC1=Nc2cc(-c3[nH]c4cnccc4c3C)c(Cl)cc2C12CCC2", "note": "[Compound A45]", "values": [{"measurement": "IC50", "setting": "human EHMT2 913-1193", "value": "< 0.01", "unit": "µM"}, {"measurement": "IC50", "setting": "[1]", "value": "0.01 to 0.1", "unit": "µM"}]}
{"compound": "CNC1=Nc2cc(-n3cc4c(n3)CCCNC4)c(OC)cc2C12CCC2", "note": "[Compound A70]", "values": [{"measurement": "IC50", "setting": "human EHMT2 913-1193", "value": "< 0.01", "unit": "µM"}, {"measurement": "IC50", "setting": "[1]", "value": "< 0.01", "unit": "µM"}]}
{"compound": "CNC1=Nc2cc(-n3cc4c(n3)CCCN(C)C4)c(Cl)cc2C12CCC2", "note": "[Compound A68]", "values": [{"measurement": "IC50", "setting": "human EHMT2 913-1193", "value": "< 0.01", "unit": "µM"}, {"measurement": "IC50", "setting": "[1]", "value": "< 0.01", "unit": "µM"}]}
{"compound": "CNCc1cn(-c2cc3c(cc2Cl)C2(CCC2)C(NC)=N3)cn1", "note": "[Compound A48]", "values": [{"measurement": "IC50", "setting": "human EHMT2 913-1193", "value": "> 1", "unit": "µM"}, {"measurement": "IC50", "setting": "[1]", "value": "> 1", "unit": "µM"}]}
{"compound": "CNCc1cn(-c2cc3c(cc2OC)C2(CCC2)C(NC)=N3)cn1", "note": "[Compound A47]", "values": [{"measurement": "IC50", "setting": "human EHMT2 913-1193", "value": "0.01 to 0.1", "unit": "µM"}, {"measurement": "IC50", "setting": "[1]", "value": "0.1 to 1", "unit": "µM"}]}
{"compound": "CNC1=Nc2cc(-n3cc([C@H]4CCCN4C)nn3)c(Cl)cc2C12CCC2", "note": "[Compound A52R]", "values": [{"measurement": "IC50", "setting": "human EHMT2 913-1193", "value": "0.01 to 0.1", "unit": "µM"}, {"measurement": "IC50", "setting": "[1]", "value": "0.01 to 0.1", "unit": "µM"}]}
{"compound": "CNC1=Nc2cc(-n3cc4c(n3)CCCNC4)c(Cl)cc2C12CCC2", "note": "[Compound A51]", "values": [{"measurement": "IC50", "setting": "human EHMT2 913-1193", "value": "< 0.01", "unit": "µM"}, {"measurement": "IC50", "setting": "[1]", "value": "< 0.01", "unit": "µM"}]}
